Experimental data from US20110105565A1, “WATER SOLUBLE SMALL MOLECULE INHIBITORS OF THE CYSTIC FIBROSIS TRANSMEMBRANE CONDUCTANCE REGULATOR” (THE REGENTS OF THE UNIVERSITY OF CALIFORNIA, priority 2008, published 2011).
Read-outs that look alike come from different tables or passages of the source.

Assays:
[1] = tested on: Pkd1^flox/−; Ksp-Cre mice; assay: Pkd1flox/-;Ksp-Cre mouse model of autosomal dominant polycystic kidney disease; format: in vivo; conditions: for kidney weight in Pkd1flox/-;Ksp-Cre mice (in words): 3 days treatment, vs vehicle-treated; for total numbers of cysts (of >50 μm diameter) per kidney: H&E sections, control 797±69; for total numbers of cysts (of >50 μm diameter) per kidney / serum creatinine and urea (in words): Pkd1flox/-;Ksp-Cre mice; for serum creatinine and urea (in words): vs vehicle control, age 5 and 9 days
Description: An in vivo model of kidney disease was employed to further explore the ability of CFTR inhibitors to reduce cyst formation in a vascular, perfused cellular environment. Pkd1^flox/−; Ksp-Cre mice were employed for this model, since these kidney-selective Pkd1 knockout mice manifest a fulminant course, with development of large cysts and renal failure in first 2 weeks of life, and represent a postnatal model of ADPKD. Pkd1 knockout mice normally die within 20 days. The Pkd1^flox/−; Ksp-Cre model is suitable, inter alia, for evaluating the efficacy of CFTR inhibitors on retarding the growth of cysts in the distal segments of the nephron, including medullary thick ascending limbs of the loops of Henle, distal convoluted tubule and collecting ducts.
Pkd1^flox mice and Ksp-Cre transgenic mice in a C57BL/6 background were generated as described (see, e.g., Shibazaki et al., J Am Soc Nephrol 13: 10-11, 2004; and Shao et al., J Am Soc Nephrol 13: 1837-1846, 2002). Ksp-Cre mice express Cre recombinase under the control of the Ksp-cadherin promoter (Shao et al.). Kidney-specific Pdk1 knock-out mice (Pkd1^flox/−; Ksp-Cre mice) were generated by cross-breeding Pkd1^flox/flox mice with Pkd1^+/−:Ksp-Cre mice. Neonatal mice (age 1 day) were genotyped by genomic PCR.
CFTR inhibitors (5-10 mg/kg/day) or saline DMSO vehicle control (0.05 mL/injection) were administrated by subcutaneous injection on the backs of neonatal mice four times a day for 3 or 7 days using a 1 cc insulin syringe, beginning at age 2 days (11 mice per group). Pkd1^flox/+; Ksp-Cre or Pkd1^flox/+ mice from the same litter were used as controls. During the treatment period, control and Pkd1^flox/−; Ksp-Cre mice, with or without CFTR inhibitor treatment, were indistinguishable in their activity and behavior. Body weight was measured at day 5 (3 days after treatment), at which time there was no difference in body weight in any of the mouse groups. Blood and urine samples were collected for measurements of CFTR inhibitor concentration and renal function. Kidneys were removed and weighed, and fixed for histological examination or homogenized for determination of CFTR inhibitor content.
To measure serum creatinine and urea (indicators of renal function), serum was obtained from whole blood by centrifugation at 5000×g for 5 min. Serum creatinine concentration was measured using a colorimetric assay kit (Cayman Chemical, Ann Arbor Mich.) following manufacturer's instructions. Urea concentration was measured using the colorimetric QUANTICHROM Urea Assay Kit (BioAssay Systems, Hayward, Calif.). Creatinine and urea concentrations were determined from optical densities using calibration standards.
For histological examination, kidneys were fixed with Bouin's fixative and embedded in paraffin. Three-μm thick sections were cut serially every 200 μm and stained with hematoxylin and eosin (H&E). Sections were imaged using a LEICA inverted epifluorescence microscope (DM 4000B) equipped with 2.5× objective lens and color CCD camera (Spot, model RT KE; Diagnostic Instruments Inc.). Cyst sizes in micrographs of kidney were determined using MATLAB 7.0 software.

[2] = tested on: MDCK cells; assay: MDCK cell cyst model of polycystic kidney disease; format: cell-based, Canine; conditions: for effect on MDCK cyst enlargement (in words): 1 μM
Description: An MDCK cell model of polycystic kidney disease was used to screen CFTR inhibitors of the thiazolidinone and glycine hydrazide classes for reducing cyst formation and expansion. […] Culture of MDCK cells in three-dimensional collagen gels produces a polarized, single-layer, thinned epithelium surrounding a fluid-filled space, apical […] microvilli, a solitary cilium, and apical tight junctions (see, e.g., McAteer et al., Scan Elect Microsc (Pt 3): 1135-1150, 1986; McAteer et al., Scanning Microsc 2: 1739-1763, 1988; and Taide et al., Eur J Clin Invest 26: 506-513, 1996).
Type I MDCK cells (ATCC No. CCL-34) were cultured at 37° C. in a humidified 95% air/5% CO2 atmosphere in a 1:1 mixture of Dulbecco's modified Eagle's medium (DMEM) and Ham's F-12 nutrient medium supplemented with 10% fetal bovine serum (Hyclone), 100 U/mL penicillin and 100 μg/mL streptomycin. To generate cysts, four hundred MDCK cells were suspended in 0.4 ml of ice-cold Minimum Essential Medium containing 2.9 mg/mL collagen (PuRECOL, Inamed Biomaterials, Fremont Calif.), 10 mM HEPES, 27 mM NaHCO3, 100 U/mL penicillin and 100 μg/mL streptomycin (pH 7.4). The cell suspension was plated onto 24-well plates. After gelation, 1.5 mL of MDCK cell medium containing 10 μM forskolin was added to each well and plates were maintained at 37° C. in a 5% CO2 humidified atmosphere.
The compound structures together with their approximate CFTR inhibition potencies (expressed as IC50 values) are provided in FIGS. 3 and 4. Indicated IC50 values for T01-07, T10, T12-14 were reported by Ma et al. (J Clin Invest 110: 1651-1658 (2002)). IC50 values for T08, T11, and T16 were determined by short-circuit analysis performed according to methods described herein. Indicated IC50 values for G01-05, G8-16 were reported by Sonawane et al. (FASEB J. 20: 130-132 (2006); Sonawane et al., Gastroenterology 132:1234-44 (2007)). IC50 values for G06 and G07 were determined by short-circuit current analysis performed according to methods described herein.
Medium containing forskolin and test compounds was changed every 12 h. At day 6, cysts (with diameters >50 μm) and non-cyst cell colonies were counted by phase-contrast light microscopy at 20× magnification (546 nm monochromatic illumination) using a Nikon TE 2000-S inverted microscope. In some experiments, compounds were added to medium in the continued presence of forskolin from day 4 after seeding and the medium containing forskolin and compounds was changed every 12 h for 8 days. Micrographs showing the same cysts in collagen gels (identified by markings on plates) were obtained every 2 days. For determination of cyst growth, cyst diameters were measured using Image J software. At least 10 cysts/well and 3 wells/group were measured for each condition.

[3] = tested on: MDCK cells; assay: MDCK cell apoptosis, in situ cell death detection kit; format: cell-based, Canine; conditions: 10 μM, 72 h
Experimental: Apoptosis was measured using the in situ cell death detection kit (ROCHE Diagnostics, Indianapolis, Ind.). MDCK cells were seeded on 8-chamber polystyrene tissue culture-treated glass slides and incubated with compounds T08 and G07 for 72 h at 5, 10 or 20 μM. The assay was performed according to manufacturer's instructions. Five microscopic fields were analyzed per condition. The apoptosis index was calculated as the percentage of nucleus-stained cells.

[4] = target: human wildtype CFTR (Homo sapiens, UniProt P13569); assay: Fluorescence cell-based assay of CFTR inhibition (YFP iodide influx, FRT cells); design: expressed in transfected cells; host or cells: Fisher rat thyroid (FRT) cells; conditions: given as ranges, read-out: IC50
Sequence of human wildtype CFTR (P13569 whole entry): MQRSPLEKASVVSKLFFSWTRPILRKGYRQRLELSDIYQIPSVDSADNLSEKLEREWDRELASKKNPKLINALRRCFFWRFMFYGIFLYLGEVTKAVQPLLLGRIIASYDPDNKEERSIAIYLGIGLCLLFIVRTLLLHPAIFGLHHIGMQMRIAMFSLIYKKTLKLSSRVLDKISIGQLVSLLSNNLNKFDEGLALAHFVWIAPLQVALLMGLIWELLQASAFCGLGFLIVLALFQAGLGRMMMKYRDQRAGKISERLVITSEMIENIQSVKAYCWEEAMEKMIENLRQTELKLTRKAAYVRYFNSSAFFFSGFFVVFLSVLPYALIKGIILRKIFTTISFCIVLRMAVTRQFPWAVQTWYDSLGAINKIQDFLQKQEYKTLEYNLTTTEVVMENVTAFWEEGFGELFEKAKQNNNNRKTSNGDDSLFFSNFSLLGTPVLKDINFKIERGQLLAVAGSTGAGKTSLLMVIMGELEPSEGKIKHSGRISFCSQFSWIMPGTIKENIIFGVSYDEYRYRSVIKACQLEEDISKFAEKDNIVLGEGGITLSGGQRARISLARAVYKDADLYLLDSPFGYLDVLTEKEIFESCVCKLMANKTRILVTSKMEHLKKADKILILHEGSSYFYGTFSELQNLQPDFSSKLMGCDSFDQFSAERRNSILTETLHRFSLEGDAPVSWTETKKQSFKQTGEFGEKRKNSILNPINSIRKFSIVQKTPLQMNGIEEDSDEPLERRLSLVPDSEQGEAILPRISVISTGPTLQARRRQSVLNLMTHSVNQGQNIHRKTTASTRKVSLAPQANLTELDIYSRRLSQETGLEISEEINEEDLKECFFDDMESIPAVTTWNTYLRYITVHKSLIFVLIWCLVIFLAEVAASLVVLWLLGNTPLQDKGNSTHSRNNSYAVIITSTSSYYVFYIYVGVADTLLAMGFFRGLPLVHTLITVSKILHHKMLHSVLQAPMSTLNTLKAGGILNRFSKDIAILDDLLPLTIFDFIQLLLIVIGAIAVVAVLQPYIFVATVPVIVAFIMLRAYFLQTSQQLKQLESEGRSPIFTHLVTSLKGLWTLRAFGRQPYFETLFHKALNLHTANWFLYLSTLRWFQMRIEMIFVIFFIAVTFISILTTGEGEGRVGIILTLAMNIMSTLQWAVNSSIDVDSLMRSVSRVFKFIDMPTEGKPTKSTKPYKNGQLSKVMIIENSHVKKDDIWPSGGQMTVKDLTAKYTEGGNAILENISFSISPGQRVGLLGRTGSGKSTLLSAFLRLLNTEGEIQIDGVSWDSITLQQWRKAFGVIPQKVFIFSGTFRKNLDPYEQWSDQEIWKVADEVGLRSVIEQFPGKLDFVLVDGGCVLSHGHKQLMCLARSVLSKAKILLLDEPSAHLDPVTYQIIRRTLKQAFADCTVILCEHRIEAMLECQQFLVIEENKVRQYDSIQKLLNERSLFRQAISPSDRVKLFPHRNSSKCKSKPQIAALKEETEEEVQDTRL
Experimental: CFTR inhibition by thiazolidinone derivative compounds was determined by a fluorescence cell-based assay utilizing doubly transfected cells expressing human wild-type CFTR and a yellow fluorescent protein (YFP) iodide sensor, as described (see, e.g., Galietta, et al., J. Physiol. 281:C1734-C1742 (2001)). Fisher rat thyroid (FRT) cells stably expressing wild-type human CFTR and YFP-H148Q were cultured on 96-well black-wall plates as described (see, e.g., Ma, et al., J. Clin. Invest. 110:1651-1658 (2002)). Cells in 96-well plates were washed three times, and then CFTR was activated by incubation for 15 minutes with an activating cocktail containing 10 μM forskolin, 20 μM apigenin, and 100 μM IBMX. Test compounds were added 5 minutes before assay of iodide influx in which cells were exposed to a 100 mM inwardly directed iodide gradient. YFP fluorescence was recorded for 2 seconds before and 12 seconds after creation of the iodide gradient. Initial rates of iodide influx were computed from the time course of decreasing fluorescence after the iodide gradient.
CFTR-facilitated iodide influx following extracellular iodide addition results in quenching of cytoplasmic YFP fluorescence.

Compound | kidney weight in Pkd1flox/-;Ksp-Cre mice (in words) [1] | total numbers of cysts (of >50 μm diameter) per kidney [1] | serum creatinine and urea (in words) [1] | effect on MDCK cyst enlargement (in words) [2] | effect on MDCK cyst enlargement/formation (in words) ([2]; 10 μM) | inhibition at 10 µM ([2]; Canis lupus familiaris, MDCK, 10 μM, forskolin 10 μM, cyst diameter, read-out: inhibition of cyst growth) | MDCK cell apoptosis (in words) [3] | IC50 ([4]; Table 1, upper part, CFTR inhibitory activity) | IC50 ([4]; Table 2 summary table)
O=C1/C(=C/c2ccc(-c3nnn[nH]3)cc2)SC(=S)N1c1cccc(C(F)(F)F)c1 [Compound 6, (Z)-5-(4-(1H-tetrazol-5-yl)benzylidene)-2-thioxo-3-(3-(trifluoromethyl)phenyl)thiazolidin-4-one] | reduced kidney weight significantly | 457±32 | significantly reduced | strongly inhibited cyst enlargement | slowed cyst enlargement | > 70% | – | – | –
O=C1/C(=C/c2ccc(-c3nn[nH]n3)cc2)SC(=S)N1c1cccc(C(F)(F)F)c1 [Compound 6, (Z)-5-(4-(1H-tetrazol-5-yl)benzylidene)-2-thioxo-3-(3-(trifluoromethyl)phenyl)thiazolidin-4-one] | – | – | – | – | – | – | did not cause MDCK cell apoptosis | 0.1 to 1 µM | 0.1 to 1 µM
N-2-naphthalenyl-2-hydroxyethyl-[(3,5-dibromo-2,4-dihydroxyphenyl)methylene]phenylglycinehydrazide [Compound G07] | reduced kidney weight significantly | 316±45 | significantly reduced | strongly inhibited cyst enlargement | – | – | did not cause MDCK cell apoptosis | – | –
